Test results as given in article PMC7160324 (Bioorganic & medicinal chemistry letters, 2018).
“Also recorded” adds a separate entry of the source.

Assays:
mAChRs = test: [3H]DA release assay, superfused rat striatal slices
human M5 mAChR = target: T1, human M5 mAChR (Homo sapiens, UniProt P08912); test: [3H]NMS binding, CHO cell membranes expressing human M5 mAChR
T1 sequence (P08912 1-532): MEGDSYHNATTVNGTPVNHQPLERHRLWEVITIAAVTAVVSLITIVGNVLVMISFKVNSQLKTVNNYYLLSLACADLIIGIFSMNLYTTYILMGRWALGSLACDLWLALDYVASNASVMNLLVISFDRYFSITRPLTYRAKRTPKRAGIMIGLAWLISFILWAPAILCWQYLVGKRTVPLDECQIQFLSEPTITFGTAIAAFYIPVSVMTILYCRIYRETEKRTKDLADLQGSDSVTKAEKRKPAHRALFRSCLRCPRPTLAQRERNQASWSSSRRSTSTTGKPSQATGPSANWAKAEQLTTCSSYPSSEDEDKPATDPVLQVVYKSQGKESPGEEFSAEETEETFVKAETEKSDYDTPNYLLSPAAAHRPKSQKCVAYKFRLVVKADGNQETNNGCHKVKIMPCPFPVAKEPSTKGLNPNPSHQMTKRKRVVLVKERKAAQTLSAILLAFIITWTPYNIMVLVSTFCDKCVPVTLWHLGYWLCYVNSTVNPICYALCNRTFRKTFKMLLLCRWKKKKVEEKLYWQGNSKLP

human M3 mAChR = human M3 mAChR (Homo sapiens, UniProt P20309); settings: [3H]NMS binding assay; ref [36],[43]; cited from earlier work
M3 mAChR = settings: ref [36],[43]; cited from earlier work

human M3 mAChR, sequence (P20309 whole entry): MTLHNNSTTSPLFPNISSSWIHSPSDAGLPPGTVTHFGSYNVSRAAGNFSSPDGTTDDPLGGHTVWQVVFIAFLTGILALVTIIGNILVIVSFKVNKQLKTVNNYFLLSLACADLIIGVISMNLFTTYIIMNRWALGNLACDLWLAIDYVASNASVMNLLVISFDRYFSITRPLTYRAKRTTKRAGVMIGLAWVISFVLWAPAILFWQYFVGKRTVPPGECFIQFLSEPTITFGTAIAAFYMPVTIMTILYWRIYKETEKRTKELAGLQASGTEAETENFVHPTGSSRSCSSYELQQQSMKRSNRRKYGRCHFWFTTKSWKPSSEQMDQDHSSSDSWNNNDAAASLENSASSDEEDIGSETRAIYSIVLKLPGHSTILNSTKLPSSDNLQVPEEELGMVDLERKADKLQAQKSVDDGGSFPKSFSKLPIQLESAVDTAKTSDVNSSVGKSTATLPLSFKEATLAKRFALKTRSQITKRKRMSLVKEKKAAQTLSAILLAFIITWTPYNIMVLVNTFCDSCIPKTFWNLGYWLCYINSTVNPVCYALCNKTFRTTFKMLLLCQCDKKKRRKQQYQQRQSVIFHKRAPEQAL

| Structure (SMILES) | selectivity for M3 over M2 (human M3 mAChR) | effect on carbachol-induced contraction of the isolated rat tracheal muscle (M3 mAChR) | also measured |
| --- | --- | --- | --- |
| O=C(OC1CN2CCC1CC2)N(CCc1ccc(F)cc1)c1ccccc1 (racemic) [Compound 3c, (±)-quinuclidin-3-yl-(4-fluorophenethyl)(phenyl)carbamate] | – | – | effect on oxotremorine-evoked [3H]DA overflow (mAChRs; oxotremorine 100 μM, 3c 0.1, 1, 10 μM, significant at 10 μM): augmented oxotremorine-evoked [^3H]DA overflow; also recorded: augmented release evoked by oxotremorine; also recorded: augmented oxotremorine-evoked DA release; fold higher affinity for M5 mAChRs compared to compound 1 (human M5 mAChR): 1200 fold |
| O=C(NCC1CCNCC1)[C@H]1CCCN1C(=O)[C@@H]1C[C@@H](O)CN1C(=O)CC(c1ccc(F)cc1)(c1ccc(F)cc1)c1ccc(F)cc1 [compound 14a, (2R)-1-((2S,4R)-4-hydroxy-1-[3,3,3-tris(4-fluoro-phenyl)propanoyl]-pyrrolidine-2-yl)carbonyl-N-(4-piperidinyl-methyl)pyrrolidine-2-carboxamide] | 1600 fold | inhibition | – |
| Nc1cccc(CN2CCC(NC(=O)[C@](O)(c3ccccc3)[C@@H]3CCC(F)(F)C3)CC2)n1 [compound A, (2R)-N-[1-(6-aminopyridin-2-ylmethyl)piperidin-4-yl]-2-[(1R)-3,3-difluorocyclopentyl]-2-hydroxy-2-phenylacetamide] | 193 fold | inhibition | – |
| O=C1CCCN1CC#CCN1CCCC1 [oxotremorine] | – | – | effect on [3H]DA overflow compared to control (mAChRs; oxotremorine 100 μM): increased [^3H]DA overflow |
| CN1[C@@H]2C[C@H](OC(=O)[C@H](CO)c3ccccc3)C[C@H]1[C@@H]1O[C@@H]12 [scopolamine] | – | – | effect on 3c-evoked [3H]DA overflow (mAChRs; scopolamine 10 μM, 3c 10 μM): inhibited |
